Measurements as given in patent US7456165B2, “HCV NS5B inhibitors” (Bristol-Myers Squibb Company, priority 2006, dated 2008).

Legend:
HCV replicon cells = experiment: HCV replicon FRET assay; format: cell-based; details: Hepatitis C virus
How it was run: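 Huh-7-derived HCV replicon cells (with or without Renilla luciferase reporter) incubated with titrated compound at 37° C. Lysed cells then read by NS3 cleavage of EDANS/DABCYL FRET peptide (20 μM, 340/490 nm, kinetic) or by Dual-Glo luciferase. EC50 is concentration giving 50% signal reduction after protease-inhibitor background subtraction; Alamar blue gives cytotoxicity.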

HCV NS5B = molecular target: T1, HCV NS5B (Hepatitis C virus genotype 1b, UniProt Q9WMX2); experiment: HCV NS5B RdRp enzyme assay (preincubation protocol); format: biochemical; details: HCV NS5B RdRp genotype 1b
T1 construct: The protein was expressed with an 18 amino acid C-terminal truncation to enhance the solubility; made in house; host or cells: E. coli BL21(DE3)
T1 sequence (Q9WMX2 2420-2992): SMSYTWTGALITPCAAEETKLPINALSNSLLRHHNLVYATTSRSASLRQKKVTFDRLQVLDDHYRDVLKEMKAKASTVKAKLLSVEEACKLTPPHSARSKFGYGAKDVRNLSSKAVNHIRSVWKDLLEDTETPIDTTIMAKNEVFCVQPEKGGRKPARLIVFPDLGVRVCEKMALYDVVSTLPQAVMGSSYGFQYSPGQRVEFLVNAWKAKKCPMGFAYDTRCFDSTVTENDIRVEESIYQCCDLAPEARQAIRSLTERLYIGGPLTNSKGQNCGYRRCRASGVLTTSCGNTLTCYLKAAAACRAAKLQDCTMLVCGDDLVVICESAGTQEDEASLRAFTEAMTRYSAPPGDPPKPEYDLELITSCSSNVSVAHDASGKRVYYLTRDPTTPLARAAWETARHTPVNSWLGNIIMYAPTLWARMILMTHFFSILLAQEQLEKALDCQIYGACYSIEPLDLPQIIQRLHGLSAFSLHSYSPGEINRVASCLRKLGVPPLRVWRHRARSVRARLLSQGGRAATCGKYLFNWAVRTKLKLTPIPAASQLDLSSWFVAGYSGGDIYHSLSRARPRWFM
How it was run: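 Preincubation format uses C-terminally truncated (Δ18) NS5B 1b from E. coli at 14 nM, added to compound before polyA template (0.2 nM), 3H-UTP (0.29 μM) and oligo-dT12 primer precaptured on SPA beads (20 nM). Buffer was 20 mM Hepes pH 7.5, 2% DMSO, run 4 h at 30° C. IC50 came from seven concentrations.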

Structure (SMILES)	EC50 (HCV replicon cells) [nM]	IC50 (HCV NS5B) [nM]
O=C(O)c1ccc2c(C3CCCCC3)c3n(c2c1)CC(c1nnc(CC2CCOCC2)o1)=Cc1ccccc1-3 [Example 44, 13-cyclohexyl-6-[5-[(tetrahydro-2H-pyran-4-yl)methyl]-1,3,4-oxadiazol-2-yl]-7H-indolo[2,1-a][2]benzazepine-10-carboxylic acid]	> 500	1 to 500
O=C(O)c1ccc2c(C3CCCCC3)c3n(c2c1)CC(c1ccoc1)=Cc1ccccc1-3 [Example 45, 13-Cyclohexyl-6-(furan-3-yl)-7H-indolo{2,1-a][2]benzazepine-10-carboxylic Acid]	> 500	1 to 500
COC(=O)CCc1cnc(C2=Cc3cc(OC)ccc3-c3c(C4CCCCC4)c4ccc(C(=O)OC)cc4n3C2)o1 [Example 46, Methyl 13-cyclohexyl-3-methoxy-6-(5-(3-methoxy-3-oxopropyl)-1,3-oxazol-2-yl)-7H-indolo[2,1-a][2]benzazepine-10-carboxylate]	> 500	> 500
COC(=O)c1ccc2c(C3CCCCC3)c3n(c2c1)CC(c1ncc(CCC(=O)O)o1)=Cc1cc(OC)ccc1-3 [Example 47, 3-(2-(13-Cyclohexyl-3-methoxy-10-(methoxycarbonyl)-7H-indolo[2,1-a][2]benzazepin-6-yl)-1,3-oxazol-5-yl)propanoic acid]	> 500	1 to 500
COC(=O)c1ccc2c(C3CCCCC3)c3n(c2c1)CC(c1ncc(CCC(=O)N2CCOCC2)o1)=Cc1cc(OC)ccc1-3 [Example 48, Methyl 13-cyclohexyl-3-methoxy-6-(5-(3-(4-morpholinyl)-3-oxopropyl)-1,3-oxazol-2-yl)-7H-indolo[2,1-a][2]benzazepine-10-carboxylate]	> 500	> 500
COc1ccc2c(c1)C=C(c1ncco1)Cn1c-2c(C2CCCCC2)c2ccc(C(=O)O)cc21 [Example 56, 13-Cyclohexyl-3-methoxy-6-(1,3-oxazol-2-yl)-7H-indolo[2,1-a][2]benzazepine-10-carboxylic acid]	> 500	1 to 500
COc1ccc2c(c1)C=C(c1ncco1)Cn1c-2c(C2CCCCC2)c2ccc(C(=O)NS(=O)(=O)N(C)C)cc21 [Example 57, 13-Cyclohexyl-N-((dimethylamino)sulfonyl)-3-methoxy-6-(1,3-oxazol-2-yl)-7H-indolo[2,1-a][2]benzazepine-10-carboxamide]	1 to 500	1 to 500
COc1ccc2c(c1)CC(c1ncco1)Cn1c-2c(C2CCCCC2)c2ccc(C(=O)NS(=O)(=O)N(C)C)cc21 (stereo not shown) [Example 58, 13-Cyclohexyl-N-((dimethylamino)sulfonyl)-3-methoxy-6-(1,3-oxazol-2-yl)-6,7-dihydro-5H-indolo[2,1-a][2]benzazepine-10-carboxamide]	1 to 500	1 to 500
